# Measurements: US9914730B2, “Azaquinazoline inhibitors of Atypical protein Kinase C” (Ignyta, Inc., priority 2012, dated 2018)
# Biological target: T1, full-length human PKCι (Homo sapiens, UniProt P41743)
# T1 construct: Recombinant, full-length human PKCι expressed in Sf21 insect cells is also commercially available; purchased; host or cells: Sf21 insect cells
# T1 sequence (P41743 1-596): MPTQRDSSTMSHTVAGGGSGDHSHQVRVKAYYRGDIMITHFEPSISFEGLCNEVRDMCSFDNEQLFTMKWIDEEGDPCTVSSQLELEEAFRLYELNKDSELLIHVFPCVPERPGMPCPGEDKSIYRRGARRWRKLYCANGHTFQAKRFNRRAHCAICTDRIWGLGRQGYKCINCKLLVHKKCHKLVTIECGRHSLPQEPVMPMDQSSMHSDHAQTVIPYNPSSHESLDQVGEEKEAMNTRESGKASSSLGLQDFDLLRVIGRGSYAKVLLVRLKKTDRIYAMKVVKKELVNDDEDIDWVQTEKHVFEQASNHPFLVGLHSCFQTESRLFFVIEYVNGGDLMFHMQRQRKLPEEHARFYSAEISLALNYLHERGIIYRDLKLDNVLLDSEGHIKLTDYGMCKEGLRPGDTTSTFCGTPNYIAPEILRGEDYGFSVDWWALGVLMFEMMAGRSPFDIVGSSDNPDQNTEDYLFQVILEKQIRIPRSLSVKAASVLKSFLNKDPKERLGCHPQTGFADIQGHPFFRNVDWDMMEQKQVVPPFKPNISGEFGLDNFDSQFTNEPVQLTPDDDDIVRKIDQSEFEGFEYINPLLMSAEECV
# Experiment: PKCι IC50 IMAP assay, full-length PKCι at 150 μM ATP
# Format: biochemical
# Conditions: read-out: IC50 in IMAP assay against full length PKCi at 150 μM ATP
# Procedure, shortened: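 Phosphorylation of a 5FAM-tagged PKCε pseudopeptide-derived substrate (100 nM) by full-length recombinant human PKCι was monitored by IMAP fluorescence polarisation. ATP was held at 150 μM, five times its apparent KM, with 60 min room-temperature incubation.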
row,Compound,IC50
1,"FC(F)(F)c1nc2cc(Nc3cc(-c4nc(N5CCNCC5)c5c(C6CC6)cncc5n4)ccn3)ccc2o1 [Example 2133, [4-(5-Cyclopropyl-4-piperazin-1-yl-pyrido[3,4-d]pyrimidin-2-yl)-pyridin-2-yl]-(2-trifluoromethyl-benzooxazol-5-yl)-amine]",< 100 nM
2,"FC(F)(F)c1cc2c(-c3nc(SC4CCNCC4)c4c(C5CC5)cncc4n3)ccnc2[nH]1 [Example 2134, 5-Cyclopropyl-4-(piperidin-4-ylsulfanyl)-2-(2-trifluoromethyl-1H-pyrrolo[2,3-b]pyridin-4-yl)-pyrido[3,4-d]pyrimidine]",< 100 nM
3,"CN(c1nc(-c2ccnc3[nH]c(C(F)(F)F)cc23)nc2c(Cl)ncc(C3CC3)c12)C1CCNCC1 [Example 2136, [8-Chloro-5-cyclopropyl-2-(2-trifluoromethyl-1H-pyrrolo[2,3-b]pyridin-4-yl)-pyrido[3,4-d]pyrimidin-4-yl]-methyl-piperidin-4-yl-amine]",< 100 nM
4,"c1ccc2c(c1)CCC(Nc1cc(-c3nc(N4CCNCC4)c4c(C5CC5)cncc4n3)ccn1)C2 (stereo not shown) [Example 2137, [4-(5-Cyclopropyl-4-piperazin-1-yl-pyrido[3,4-d]pyrimidin-2-yl)-pyridin-2-yl]-(1,2,3,4-tetrahydro-naphthalen-2-yl)-amine]",< 100 nM
5,"CN(c1nc(-c2ccnc(Nc3ccc4ccccc4n3)c2)nc2cncc(C3CC3)c12)C1CCNCC1 [Example 2138, {5-Cyclopropyl-2-[2-([D4],[D3]uinolin-2-ylamino)-pyridin-4-yl]-pyrido[3,4-d]pyrimidin-4-yl}-methyl-piperidin-4-yl-amine]",< 100 nM
6,"CN(CC1CCNCC1)c1nc(-c2ccnc3[nH]c(C(F)(F)F)cc23)nc2cncc(C3CC3)c12 [Example 2139, [5-Cyclopropyl-2-(2-trilfuoromethyl-1H-pyrrolo[2,3-b]pyridin-4-yl)-pyrido[3,4-d]pyrimidin-4-yl]-methyl-piperidin-4-ylmethyl-amine]",< 100 nM
7,"O[C@@H]1Cc2ccccc2[C@@H]1Nc1cc(-c2nc(N3CCNCC3)c3c(C4CC4)cncc3n2)ccn1 [Example 2140, (1S,2R)-1-[4-(5-Cyclopropyl-4-piperazin-1-yl-pyrido[3,4-d]pyrimidin-2-yl)-pyridin-2-ylamino]-indan-2-ol]",< 100 nM
8,"O[C@H]1Cc2ccccc2[C@@H]1Nc1cc(-c2nc(N3CCNCC3)c3c(C4CC4)cncc3n2)ccn1 [Example 2141, (1S,2S)-1-[4-(5-Cyclopropyl-4-piperazin-1-yl-pyrido[3,4-d]pyrimidin-2-yl)-pyridin-2-ylamino]-indan-2-ol]",< 100 nM
9,"O[C@H]1Cc2ccccc2[C@H]1Nc1cc(-c2nc(N3CCNCC3)c3c(C4CC4)cncc3n2)ccn1 [Example 2142, (1R,2S)-1-[4-(5-Cyclopropyl-4-piperazin-1-yl-pyrido[3,4-d]pyrimidin-2-yl)-pyridin-2-ylamino]-indan-2-ol]",100 to 1000 nM
10,"O[C@@H]1Cc2ccccc2[C@H]1Nc1cc(-c2nc(N3CCNCC3)c3c(C4CC4)cncc3n2)ccn1 [Example 2143, (1R,2R)-1-[4-(5-Cyclopropyl-4-piperazin-1-yl-pyrido[3,4-d]pyrimidin-2-yl)-pyridin-2-ylamino]-indan-2-ol]",< 100 nM
11,"Fc1cccc(F)c1-c1cc2c(-c3nc(N4CCNCC4)c4c(C5CCC5)cncc4n3)ccnc2[nH]1 [Example 2144, 5-Cyclobutyl-2-[2-(2,6-difluoro-phenyl)-1H-pyrrolo[2,3-b]pyridin-4-yl]-4-piperazin-1-yl-pyrido[3,4-d]pyrimidine]",< 100 nM
12,"CN(c1nc(-c2ccnc(Nc3ncc(Cl)cc3F)c2)nc2cncc(C3CC3)c12)C1CCNCC1 [Example 2151, {2-[2-(5-Chloro-3-fluoro-pyridin-2-ylamino)-pyridin-4-yl]-5-cyclopropyl-pyrido[3,4-d]pyrimidin-4-yl}-methyl-piperidin-4-yl-amine]",< 100 nM
13,"CN(c1nc(-c2ccnc(Nc3ncc(F)cc3F)c2)nc2cncc(C3CCC3)c12)C1CCNCC1 [Example 2157, {5-Cyclobutyl-2-[2-(3,5-difluoro-pyridin-2-ylamino)-pyridin-4-yl]-pyrido[3,4-d]pyrimidin-4-yl}-methyl-piperidin-4-yl-amine]",< 100 nM

# The next lines start with the values.
row,IC50,Compound
1,< 100 nM,"Fc1cccc(F)c1-c1cc2c(-c3nc(N4CCNCC4)c4c(C5CC5)cncc4n3)ccnc2[nH]1 [Example 2145, 5-Cyclopropyl-2-[2-(2,6-difluoro-phenyl)-1H-pyrroIo[2,3-b]pyridin-4-yl]-4-piperazin-1-yl-pyrido[3,4-d]pyrimidine]"
2,< 100 nM,"c1cc(-c2nc(N3CCNCC3)c3c(C4CC4)cncc3n2)c2cc(C3CCC3)[nH]c2n1 [Example 2146, 2-(2-Cyclobutyl-1H-pyrrolo[2,3-b]pyridin-4-yl)-5-cyclopropyl-4-piperazin-1-yl-pyrido[3,4-d]pyrimidine]"
3,< 100 nM,"c1cc(-c2nc(N3CCNCC3)c3c(C4CCC4)cncc3n2)c2cc(C3CCC3)[nH]c2n1 [Example 2147, 5-Cyclobutyl-2-(2-cyclobutyl-1H-pyrrolo[2,3-b]pyridin-4-yl)-4-piperazin-1-yl-pyrido[3,4-d]pyrimidine]"
4,< 100 nM,"Fc1cnc(Nc2cc(-c3nc(N4CCNCC4)c4c(C5CC5)cnc(Cl)c4n3)ccn2)c(F)c1 [Example 2148, [4-(8-Chloro-5-cyclopropyl-4-piperazin-1-yl-pyrido[3,4-d]pyrimidin-2-yl)-pyridin-2-yl]-(3,5-difluoro-pyridin-2-yl)-amine]"
5,< 100 nM,"Cn1cnc2ccc(Nc3cc(-c4nc(N5CCNCC5)c5c(C6CC6)cncc5n4)ccn3)cc21 [Example 2149, [4-(5-Cyclopropyl-4-piperazin-1-yl-pyrido[3,4-d]pyrimidin-2-yl)-pyridin-2-yl]-(3-methyl-3H-benzoimidazol-5-yl)-amine]"
6,< 100 nM,"FC(F)(F)COc1ccc(Nc2cc(-c3nc(N4CCNCC4)c4c(C5CC5)cncc4n3)ccn2)cc1 [Example 2150, [4-(5-Cyclopropyl-4-piperazin-1-yl-pyrido[3,4-d]pyrimidin-2-yl)-pyridin-2-yl]-[4-(2,2,2-trifluoro-ethoxy)-phenyl]-amine]"
7,< 100 nM,"c1cc(-c2nc(N3CCNCC3)c3c(C4CC4)cncc3n2)c2cc(C3CCCCC3)[nH]c2n1 [Example 2152, 5-Cyclopropyl-2-(2-cyclohexyl-1H-pyrrolo[2,3-b]pyridin-4-yl)-4-piperazin-1-yl-pyrido[3,4-d]pyrimidine]"
8,< 100 nM,"c1cc(-c2nc(N3CCNCC3)c3c(C4CCC4)cncc3n2)c2cc(C3CCCCC3)[nH]c2n1 [Example 2153, 5-Cyclobutyl-2-(2-cyclohexyl-1H-pyrrolo[2,3-b]pyridin-4-yl)-4-piperazin-1-yl-pyrido[3,4-d]pyrimidine]"
9,< 100 nM,"FC(F)(F)c1ccc(-n2cc(Nc3cc(-c4nc(N5CCNCC5)c5c(C6CC6)cncc5n4)ccn3)c(Cl)n2)nc1 [Example 2154, [3-Chloro-1-(5-trifluoromethyl-pyridin-2-yl)-1H-pyrazol-4-yl]-[4-(5-cyclopropyl-4-piperazin-1-yl-pyrido[3,4-d]pyrimidin-2-yl)-pyridin-2-yl]-amine]"
10,100 to 1000 nM,"FC(F)(F)c1cc2c(-c3nc(NC4CCNCC4(F)F)c4c(C5CC5)cncc4n3)ccnc2[nH]1 (stereo not shown) [Example 2155, [5-Cyclopropyl-2-(2-trifluoromethyl-1H-pyrrolo[2,3-b]pyridin-4-yl)-pyrido[3,4-d]pyrimidin-4-yl]-(3,3-difluoro-piperidin-4-yl)-amine]"
11,100 to 1000 nM,"Fc1cnc(Nc2cc(-c3nc(NC4CCNCC4(F)F)c4c(C5CC5)cncc4n3)ccn2)c(F)c1 (stereo not shown) [Example 2156, {5-Cyclopropyl-2-[2-(3,5-difluoro-pyridin-2-ylamino)-pyridin-4-yl]-pyrido[3,4-d]pyrimidin-4-yl}-(3,3-difluoro-piperidin-4-yl)-amine]"
12,100 to 1000 nM,"OC[C@H](Nc1cc(-c2nc(N3CCNCC3)c3c(C4CC4)cncc3n2)ccn1)c1ccccc1 [Example 2159, (R)-2-[4-(5-Cyclopropyl-4-piperazin-1-yl-pyrido[3,4-d]pyrimidin-2-yl)-pyridin-2-ylamino]-2-phenyl-ethanol]"
13,< 100 nM,"C[C@@H](Nc1cc(-c2nc(N3CCNCC3)c3c(C4CC4)cncc3n2)ccn1)c1ccc2ccccc2c1 [Example 2160, [4-(5-Cyclopropyl-4-piperazin-1-yl-pyrido[3,4-d]pyrimidin-2-yl)-pyridin-2-yl]-((R)-1-naphthalen-2-yl-ethyl)-amine]"
14,< 100 nM,"C[C@@H](Nc1cc(-c2nc(N3CCNCC3)c3c(C4CCC4)cncc3n2)ccn1)c1ccccc1F [Example 2161, [4-(5-Cyclobutyl-4-piperazin-1-yl-pyrido[3,4-d]pyrimidin-2-yl)-pyridin-2-yl]-[(R)-1-(2-fluoro-phenyl)-ethyl]-amine]"
15,< 100 nM,"FC(F)(F)Oc1ccc(Nc2cc(-c3nc(N4CCNCC4)c4c(C5CC5)cncc4n3)ccn2)cc1 [Example 2162, [4-(5-Cyclopropyl-4-piperazin-1-yl-pyrido[3,4-d]pyrimidin-2-yl)-pyridin-2-yl]-(4-trifluoromethoxy-phenyl)-amine]"
